Measurements: patent publication US7598417B2, “Substituted fluoroethyl ureas as alpha 2 adrenergic agents” (Allergan, Inc., priority 2007, dated 2009)
Like-named read-outs stand apart in the source and are kept apart here.

Assays:
Type in all cases: cell-based
alpha2A receptor = biological target: T1, alpha2A receptor (Homo sapiens, UniProt P08913); assay: Receptor Selection and Amplification Technology (RSAT) assay, alpha2A; details: for Alpha 2A IA (intrinsic activity): ratio of maximal effect of the drug to maximal effect of standard full agonist brimonidine (UK14304)
T1 construct: expressed in transfected cells; host or cells: NIH-3T3
T1 sequence (P08913 1-465): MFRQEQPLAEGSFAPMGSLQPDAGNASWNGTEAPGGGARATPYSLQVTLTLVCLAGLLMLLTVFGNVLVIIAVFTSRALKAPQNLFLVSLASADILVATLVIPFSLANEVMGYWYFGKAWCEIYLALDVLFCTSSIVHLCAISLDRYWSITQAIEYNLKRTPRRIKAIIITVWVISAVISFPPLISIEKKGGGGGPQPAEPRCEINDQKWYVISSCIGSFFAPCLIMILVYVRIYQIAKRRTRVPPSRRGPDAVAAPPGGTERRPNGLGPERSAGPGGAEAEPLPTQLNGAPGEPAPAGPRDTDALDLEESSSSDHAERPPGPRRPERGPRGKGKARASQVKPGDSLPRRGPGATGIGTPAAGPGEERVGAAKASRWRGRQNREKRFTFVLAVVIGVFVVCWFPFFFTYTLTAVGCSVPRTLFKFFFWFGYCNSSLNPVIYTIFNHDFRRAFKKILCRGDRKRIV
Method in brief: (§1)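 NIH-3T3 cells cotransfected with receptor, Gq/i5 and β-galactosidase, incubated with drug 72-96 h at 37° C; proliferation read as β-gal activity (o-nitrophenyl-β-D-galactopyranoside, OD420).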

alpha2B receptor = biological target: T2, alpha2B receptor (Homo sapiens, UniProt P18089); assay: Receptor Selection and Amplification Technology (RSAT) assay, alpha2B; details: for Alpha 2B IA (intrinsic activity): ratio of maximal effect of the drug to maximal effect of standard full agonist brimonidine (UK14304)
T2 construct: expressed in transfected cells; host or cells: NIH-3T3
T2 sequence (P18089 1-450): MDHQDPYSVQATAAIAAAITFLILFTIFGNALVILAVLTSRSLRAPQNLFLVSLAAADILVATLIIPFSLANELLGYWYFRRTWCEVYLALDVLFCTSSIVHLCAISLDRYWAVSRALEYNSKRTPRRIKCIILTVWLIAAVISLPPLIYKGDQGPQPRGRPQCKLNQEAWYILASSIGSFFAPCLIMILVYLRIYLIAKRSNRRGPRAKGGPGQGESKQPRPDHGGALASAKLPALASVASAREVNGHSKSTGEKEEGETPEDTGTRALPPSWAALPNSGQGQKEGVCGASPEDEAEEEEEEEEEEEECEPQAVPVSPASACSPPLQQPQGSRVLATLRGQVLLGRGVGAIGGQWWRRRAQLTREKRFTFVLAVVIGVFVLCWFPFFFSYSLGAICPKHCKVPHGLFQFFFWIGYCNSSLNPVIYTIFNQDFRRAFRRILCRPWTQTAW
Method in brief: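 NIH-3T3 cells cotransfected with β-galactosidase marker, human alpha2B receptor and Gq/i5 chimera, then exposed to drug in triplicate for 72-96 h at 37 °C. Proliferation read as β-galactosidase activity (o-nitrophenyl-β-D-galactopyranoside, overnight 30 °C, OD 420 nm). Intrinsic activity relative to brimonidine maximum; EC50 at half-maximal effect.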

alpha2C receptor = biological target: T3, alpha2C receptor (Homo sapiens, UniProt P18825); assay: Receptor Selection and Amplification Technology (RSAT) assay, alpha2C; details: for Alpha 2C IA (intrinsic activity): ratio of maximal effect of the drug to maximal effect of standard full agonist brimonidine (UK14304)
T3 construct: expressed in transfected cells; host or cells: NIH-3T3
T3 sequence (P18825 1-462): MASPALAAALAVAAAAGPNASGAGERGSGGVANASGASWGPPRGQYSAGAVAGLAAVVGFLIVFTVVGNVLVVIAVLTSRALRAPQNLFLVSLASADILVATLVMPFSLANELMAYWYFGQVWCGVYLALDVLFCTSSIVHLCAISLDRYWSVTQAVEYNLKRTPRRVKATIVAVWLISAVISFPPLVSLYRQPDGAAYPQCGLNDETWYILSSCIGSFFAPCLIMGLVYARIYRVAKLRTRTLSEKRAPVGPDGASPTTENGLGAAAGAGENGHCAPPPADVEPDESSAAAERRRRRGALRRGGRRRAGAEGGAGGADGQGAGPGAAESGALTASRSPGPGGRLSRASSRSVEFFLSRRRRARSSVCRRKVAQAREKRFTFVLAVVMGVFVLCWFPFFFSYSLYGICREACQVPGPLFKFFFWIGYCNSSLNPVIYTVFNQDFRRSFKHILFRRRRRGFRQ
Method in brief: as §1

[1] = RSAT, NIH-3T3 cells cotransfected with receptor and Gq/i5, not active = not active at concentrations less than 10 micromolar
[2] = RSAT, NIH-3T3 cells cotransfected with receptor and Gq/i5, not active = not active at concentrations less than 10 micromolar, read-out: Alpha 2B EC50
[3] = RSAT, NIH-3T3 cells cotransfected with receptor and Gq/i5, not active = not active at concentrations less than 10 micromolar, read-out: Alpha 2A EC50
[4] = RSAT, NIH-3T3 cells cotransfected with receptor and Gq/i5, not active = not active at concentrations less than 10 micromolar, read-out: Alpha 2C EC50

| Structure (SMILES) | Alpha 2A EC50 (alpha2A receptor; [1]) | EC50 (alpha2B receptor; [2]) [nM] | Alpha 2B IA (intrinsic activity) (alpha2B receptor) | Alpha 2C EC50 (alpha2C receptor; [1]) | EC50 (alpha2A receptor; [3]) [nM] | Alpha 2A IA (intrinsic activity) (alpha2A receptor) | EC50 (alpha2C receptor; [4]) [nM] | Alpha 2C IA (intrinsic activity) (alpha2C receptor) | EC50 (alpha2A receptor) [nM] | EC50 (alpha2B receptor) [nM] | EC50 (alpha2C receptor) [nM] |
| --- | --- | --- | --- | --- | --- | --- | --- | --- | --- | --- | --- |
| Cc1ccc2c(c1)CC(NC(=O)NCCF)C2 (stereo not drawn) | not active | 637 | 0.6 | not active | – | – | – | – | – | – | – |
| O=C(NCCF)NC1CCc2cccc(Br)c21 (stereo not drawn) | – | 20 | 1.01 | – | 111 | 0.52 | 716 | 0.97 | – | – | – |
| CCC1=CCCCC1NC(=O)NCCF (stereo not drawn) | – | – | 1.22 | – | – | 0.64 | – | 0.59 | 184 | 45 | 348 |
| Cc1ccc2c(c1)CCC2NC(=O)NCCF (stereo not drawn) | not active | 247 | 0.71 | not active | – | – | – | – | – | – | – |
| COc1ccc2c(c1)C(NC(=O)NCCF)CC2 (stereo not drawn) | not active | 300 | 0.81 | – | – | – | 1460 | 0.31 | – | – | – |
| CC1Cc2ccccc2C1NC(=O)NCCF (stereo not drawn) | not active | 26.4 | 0.85 | not active | – | – | – | – | – | – | – |
| O=C(NCCF)NC1CCc2c(Cl)cccc21 (stereo not drawn) | – | 2.5 | 1.03 | – | 34.9 | 1.05 | 116 | 1.1 | – | – | – |
| CC1=CC(NC(=O)NCCF)CC1 (stereo not drawn) | not active | 1160 | 0.61 | – | – | – | 911 | 0.47 | – | – | – |
| O=C(NCCF)NC1CCc2cccc(Cl)c21 (stereo not drawn) | – | 7.2 | 1.05 | – | 29 | 0.68 | 103 | 0.78 | – | – | – |
| O=C(NCCF)NC1CCc2c(F)cccc21 (stereo not drawn) | – | 1.8 | 1.05 | – | 130 | 0.76 | 107 | 0.68 | – | – | – |
| COc1cccc2c1C(NC(=O)NCCF)CC2 (stereo not drawn) | – | 544 | 0.63 | – | 277 | 0.48 | 972 | 0.54 | – | – | – |
| O=C(NCCF)NC1CCc2ccc(F)c(F)c21 (stereo not drawn) | not active | 18.7 | 0.97 | – | – | – | 117 | 0.53 | – | – | – |
| Cc1cccc2c1CCC2NC(=O)NCCF (stereo not drawn) | – | 1.2 | 1.1 | – | 120 | 0.59 | 67.2 | 0.79 | – | – | – |
| O=C(NCCF)NC1Cc2cccc(Br)c2C1 (stereo not drawn) | not active | 156 | 0.45 | not active | – | – | – | – | – | – | – |
| CC1=CCCCC1NC(=O)NCCF (stereo not drawn) | not active | 74 | 0.9 | – | – | – | 453 | 0.58 | – | – | – |
